# Results taken from ChEMBL document CHEMBL1154488, “Synthesis, structure elucidation and antibacterial evaluation of new steroidal -5-en-7-thiazoloquinoxaline derivatives” (2008).
# Experiments:
# Format in all cases: functional
# Escherichia coli [1] = assay: Antibacterial activity against Escherichia coli after 18 hrs by disk diffusion method
# Escherichia coli [2] = assay: Antibacterial activity against Escherichia coli after 18 hrs by macrodilution test
# Escherichia coli [3] = assay: Antibacterial activity against Escherichia coli at 30 ug/disk after 18 hrs by disk diffusion method; settings: read-out: IZ
Structure (SMILES),inhibition zone (IZ) (Escherichia coli [1]),MIC (Escherichia coli [2]),zone of inhibition at 30 µg/disc (Escherichia coli [3])
Clc1nc2ccccc2nc1Cl,6.2 mm,512 mg/L,
CC(C)CCC[C@@H](C)[C@H]1CC[C@H]2[C@@H]3/C(=N/Nc4nc5nc6ccccc6nc5s4)C=C4C[C@@H](Cl)CC[C@]4(C)[C@H]3CC[C@]12C,22.4 mm,32 mg/L,
CC(C)CCC[C@@H](C)[C@H]1CC[C@H]2[C@@H]3/C(=N/NC(N)=S)C=C4CCCC[C@]4(C)[C@H]3CC[C@]12C,9.8 mm,256 mg/L,
CC(=O)O[C@H]1CC[C@@]2(C)C(=C/C(=N\NC(N)=S)[C@H]3[C@@H]4CC[C@H]([C@H](C)CCCC(C)C)[C@@]4(C)CC[C@@H]32)C1,13.2 mm,128 mg/L,
CC(C)CCC[C@@H](C)[C@H]1CC[C@H]2[C@@H]3/C(=N/Nc4nc5nc6ccccc6nc5s4)C=C4CCCC[C@]4(C)[C@H]3CC[C@]12C,14 mm,128 mg/L,
CC(=O)O[C@H]1CC[C@@]2(C)C(=C/C(=N\Nc3nc4nc5ccccc5nc4s3)[C@H]3[C@@H]4CC[C@H]([C@H](C)CCCC(C)C)[C@@]4(C)CC[C@@H]32)C1,20.8 mm,64 mg/L,
CC(C)CCC[C@@H](C)[C@H]1CC[C@H]2[C@@H]3/C(=N/NC(N)=S)C=C4C[C@@H](Cl)CC[C@]4(C)[C@H]3CC[C@]12C,14.8 mm,64 mg/L,
O=C(N[C@H](CO)[C@H](O)c1ccc([N+](=O)[O-])cc1)C(Cl)Cl [CHLORAMPHENICOL],,32 mg/L,20 mm
CC(C)CCC[C@@H](C)[C@H]1CC[C@H]2[C@@H]3CC=C4C[C@@H](O)CC[C@]4(C)[C@H]3CC[C@]12C [CHOLESTEROL],5.8 mm,512 mg/L,
